What was measured:
[1] = biological target: BRD4 BD2 protein (Homo sapiens (Human), UniProt O60885); experiment: Fluorescence polarization binding affinity (Ki) with BRD4 BD2 protein; settings: fluorescence polarization; Ki calculated from IC50
[2] = biological target: BRD4 BD1 protein (Homo sapiens (Human), UniProt O60885); experiment: Fluorescence polarization binding affinity (Ki) with BRD4 BD1 protein; settings: fluorescence polarization; Ki calculated from IC50

Row | Compound | Ki [1] | Ki [2]
1 | CCCN1CC=C(c2ccc3c(c2)C(Nc2cccc(Cl)c2)CCn2nnc(C)c2-3)CC1 (centres unmarked) [BH120, N-(3-chlorophenyl)-1-methyl-9-(1-propyl-1,2,3,6-tetrahydropyridin-4-yl)-6,7-dihydro-5H-benzo[c][1,2,3]triazolo[1,5-a]azepin-7-amine 2,2,2-trifluoroacetate] | 0.0219 µM | 0.583 µM
2 | Cc1nnn2c1-c1ccc(C3=CCN(C(=O)C4CC4)CC3)cc1C(Nc1cccc(Cl)c1)CC2 (centres unmarked) [BH123, (4-(7-((3-chlorophenyl)amino)-1-methyl-6,7-dihydro-5H-benzo[c][1,2,3]triazolo[1,5-a]azepin-9-yl)-3,6-dihydropyridin-1 (2H)-yl) (cyclopropyl)methanone] | 0.00764 µM | 0.0467 µM
3 | Cc1nnn2c1-c1ccc(C3=CCN(C4CCC4)CC3)cc1C(Nc1ccc(F)c(Cl)c1)CC2 (centres unmarked) [BI23, N-(3-chloro-4-fluorophenyl)-9-(1-cyclobutyl-1,2,3,6-tetrahydropyridin-4-yl)-1-methyl-6,7-dihydro-5H-benzo[c][1,2,3]triazolo[1,5-a]azepin-7-amine 2,2,2-trifluoroacetate] | 0.0573 µM | 1.06 µM
4 | Cc1nnn2c1-c1ccc(C3=CCN(C(C)C)CC3)cc1C(Nc1ccc(F)c(Cl)c1)CC2 (centres unmarked) [BI24, N-(3-chloro-4-fluorophenyl)-9-(1-isopropyl-1,2,3,6-tetrahydropyridin-4-yl)-1-methyl-6,7-dihydro-5H-benzo[c][1,2,3]triazolo[1,5-a]azepin-7-amine 2,2,2-trifluoroacetate] | 0.0864 µM | 5.41 µM
5 | Cc1nnn2c1-c1ccc(C3=CCN(C4CCC4)CC3)cc1C(Nc1cc(Cl)ccc1F)CC2 (centres unmarked) [BI26, N-(5-chloro-2-fluorophenyl)-9-(1-cyclobutyl-1,2,3,6-tetrahydropyridin-4-yl)-1-methyl-6,7-dihydro-5H-benzo[c][1,2,3]triazolo[1,5-a]azepin-7-amine 2,2,2-trifluoroacetate] | 0.0454 µM | 0.861 µM
6 | Cc1nnn2c1-c1ccc(C3=CCN(C4CCCCC4)CC3)cc1C(Nc1cccc(C#N)c1)CC2 (centres unmarked) [BI29, 3-((9-(1-cyclohexyl-1,2,3,6-tetrahydropyridin-4-yl)-1-methyl-6,7-dihydro-5H-benzo[c][1,2,3]triazolo[1,5-a]azepin-7-yl)amino)benzonitrile 2,2,2-trifluoroacetate] | 0.168 µM | 2.66 µM
7 | Cc1nnn2c1-c1ccc(C3=CCN(C4CCCC4)CC3)cc1C(Nc1cccc(C#N)c1)CC2 (centres unmarked) [BI31, 3-((9-(1-cyclopentyl-1,2,3,6-tetrahydropyridin-4-yl)-1-methyl-6,7-dihydro-5H-benzo[c][1,2,3]triazolo[1,5-a]azepin-7-yl)amino)benzonitrile 2,2,2-trifluoroacetate] | 0.151 µM | 2.29 µM
8 | Cc1nnn2c1-c1ccc(C3=CCN(C(C)C)CC3)cc1C(Nc1cccc(C#N)c1)CC2 (centres unmarked) [BI34, 3-((9-(1-isopropyl-1,2,3,6-tetrahydropyridin-4-yl)-1-methyl-6,7-dihydro-5H-benzo[c][1,2,3]triazolo[1,5-a]azepine7-yl)amino)benzonitrile 2,2,2-trifluoroacetate] | 0.291 µM | 4.2 µM
9 | Cc1nnn2c1-c1ccc(C3=CCN(C4CCC4)CC3)cc1C(Nc1cccc(C#N)c1)CC2 (centres unmarked) [BI36, 3-(((9-(1-cyclobutyl-1,2,3,6-tetrahydropyridin-4-yl))-1-methyl-6,7-dihydro-5H-benzo[c][1,2,3]triazolo[1,5-a]azepin-7-yl)amino)benzonitrile 2,2,2-trifluoroacetate] | 0.0898 µM | 1.85 µM
10 | CCN1CC=C(c2ccc3c(c2)C(Nc2cccc(C#N)c2)CCn2nnc(C)c2-3)CC1 (centres unmarked) [BI37, 3-((9-(1-ethyl-1,2,3,6-tetrahydropyridin-4-yl)-1-methyl-6,7-dihydro-5H-benzo[c][1,2,3]triazolo[1,5-a]azepin-7-yl)amino)benzonitrile 2,2,2-trifluoroacetate] | 0.196 µM | 2.57 µM
11 | Cc1nnn2c1-c1ccc(C3=CCN(C4CCCC4)CC3)cc1C(Nc1cccc(S(C)(=O)=O)c1)CC2 (centres unmarked) [BI55, 9-(1-cyclopentyl-1,2,3,6-tetrahydropyridin-4-yl)-1-methyl-N-(3-(methylsulfonyl)phenyl)-6,7-dihydro-5H-benzo[c][1,2,3]triazolo[1,5-a]azepin-7-amine 2,2,2-trifluoroacetate] | 0.116 µM | 3.1 µM
12 | Cc1nnn2c1-c1ccc(C3=CCN(C4CCCCC4)CC3)cc1C(Nc1cccc(S(C)(=O)=O)c1)CC2 (centres unmarked) [BI57, 9-(1-cyclohexyl-1,2,3,6-tetrahydropyridin-4-yl)-1-methyl-N-(3-(methylsulfonyl)phenyl)-6,7-dihydro-5H-benzo[c][1,2,3]triazolo[1,5-a]azepin-7-amine 2,2,2-trifluoroacetate] | 0.147 µM | 3.61 µM
13 | Cc1nnn2c1-c1ccc(C3=CCN(C(C)C)CC3)cc1C(Nc1cccc(S(C)(=O)=O)c1)CC2 (centres unmarked) [BI60, 9-(1-isopropyl-1,2,3,6-tetrahydropyridin-4-yl)-1-methyl-N-(3-(methylsulfonyl)phenyl)-6,7-dihydro-5H-benzo[c][1,2,3]triazolo[1,5-a]azepin-7-amine 2,2,2-trifluoroacetate] | 0.307 µM | 4.74 µM
14 | Cc1nnn2c1-c1ccc(C3=CCN(C4CCC4)CC3)cc1C(Nc1cccc(S(C)(=O)=O)c1)CC2 (centres unmarked) [BI61, 9-(1-cyclobutyl-1,2,3,6-tetrahydropyridin-4-yl)-1-methyl-N-(3-(methylsulfonyl)phenyl)-6,7-dihydro-5H-benzo[c][1,2,3]triazolo[1,5-a]azepin-7-amine 2,2,2-trifluoroacetate] | 0.148 µM | 3.2 µM
15 | Cc1nnn2c1-c1ccc(C3=CCN(C(C)C)CC3)cc1C(Nc1cc(Cl)ccc1F)CC2 (centres unmarked) [BI68, N-(5-chloro-2-fluorophenyl)-9-(1-isopropyl-1,2,3,6-tetrahydropyridin-4-yl)-1-methyl-6,7-dihydro-5H-benzo[c][1,2,3]triazolo[1,5-a]azepin-7-amine 2,2,2-trifluoroacetate] | 0.0451 µM | 1.11 µM
16 | Cc1cc(NC2CCn3nnc(C)c3-c3ccc(C4=CCNCC4)cc32)n(C)n1 (centres unmarked) [BJ28, N-(1,3-dimethyl-1H-pyrazol-5-yl)-1-methyl-9-(1,2,3,6-tetrahydropyridin-4-yl)-6,7-dihydro-5H-benzo[c][1,2,3]triazolo[1,5-a]azepin-7-amine 2,2,2-trifluoroacetate] | 0.25 µM | 1.83 µM
17 | Cc1nnn2c1-c1ccc(C3=CCNCC3)cc1C(Nc1ccc(F)cc1)CC2 (centres unmarked) [BJ122, N-(4-fluorophenyl)-1-methyl-9-(1,2,3,6-tetrahydropyridin-4-yl)-6,7-dihydro-5H-benzo[c][1,2,3]triazolo[1,5-a]azepin-7-amine 2,2,2-trifluoroacetate] | 0.0686 µM | 0.757 µM
18 | Cc1nnn2c1-c1ccc(C3=CCNC3)cc1C(Nc1cccc(Cl)c1)CC2 (centres unmarked) [BJ179, N-(3-chlorophenyl)-9-(2,5-dihydro-1H-pyrrol-3-yl)-1-methyl-6,7-dihydro-5H-benzo[c][1,2,3]triazolo[1,5-a]azepin-7-amine 2,2,2-trifluoroacetate] | 0.026 µM | 0.436 µM
19 | Cc1nnn2c1-c1ccc(C3=CCNC3)cc1C(Nc1cccc(O)c1)CC2 (centres unmarked) [BJ183, 3-((9-(2,5-dihydro-1H-pyrrol-3-yl)-1-methyl-6,7-dihydro-5H-benzo[d][1,2,3]triazolo[1,5-a]azepin-7-yl)amino)phenol 2,2,2-trifluoroacetate] | 0.045 µM | 0.939 µM

From US12286435B2, “Compound having benzo seven-membered ring structure, preparation method therefor, and use thereof” (BIONNA (BEIJING) MEDICAL TECHNOLOGY CO., LTD., priority 2019, dated 2025)
